In patent US8822517B2, “Arylosulfonamides for the treatment of CNS diseases” (Adamed SP. Z O.O., priority 2010, dated 2014):

What was measured:
[1] = test system: adrenergic α1 receptor; assay: Binding assay α1 (non-selective), [3H]prazosin, rat cerebral cortex; details: percent inhibition of control specific binding; compounds tested at 1×10^−6 M
Procedure, shortened: (§1)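 Detection relied on scintillation counting of bound ligand. Compounds at 1×10^−6 M were evaluated against specific binding, i.e. total binding corrected for the nonspecific fraction seen with excess unlabelled ligand.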

[2] = target: serotoninergic 5-HT2A receptor (Homo sapiens, UniProt P28223); assay: Binding assay 5-HT2A (h), [3H]ketanserin, HEK-293 cells; design: expressed in transfected cells; host or cells: HEK-293 cells; details: read-out: 5-HT2A
Procedure, shortened: as §1

[3] = target: T1, adrenergic α2C receptor (Homo sapiens, UniProt P18825); assay: Cellular functional assay, adrenergic α2C receptor (agonism/antagonism); assay type: cell-based; details: for activation at 1 µM: agonist effect, percent of control specific agonist response, compounds tested at 1×10^−6M, read-out: α2C −ag [%]; for inhibition at 1 µM: read-out: α2C −antag. [%]
T1 sequence (P18825 1-462): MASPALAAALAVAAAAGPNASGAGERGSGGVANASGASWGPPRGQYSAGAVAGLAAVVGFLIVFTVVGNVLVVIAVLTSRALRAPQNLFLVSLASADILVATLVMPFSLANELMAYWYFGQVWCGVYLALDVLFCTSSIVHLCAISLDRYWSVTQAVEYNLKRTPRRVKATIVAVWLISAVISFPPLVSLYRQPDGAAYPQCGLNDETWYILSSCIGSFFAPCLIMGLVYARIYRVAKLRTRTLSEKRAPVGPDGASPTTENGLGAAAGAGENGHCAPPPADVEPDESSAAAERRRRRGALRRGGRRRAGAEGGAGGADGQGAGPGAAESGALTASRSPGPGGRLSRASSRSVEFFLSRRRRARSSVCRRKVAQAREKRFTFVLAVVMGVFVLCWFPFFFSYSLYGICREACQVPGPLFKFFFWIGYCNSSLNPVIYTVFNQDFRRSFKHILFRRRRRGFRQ
Procedure: (§2) The compounds were tested at the concentration of 1×10^−6M.
(§3) In the Tables ag refers to agonism, and antag to antagonism).

[4] = test system: sigma σ receptor; assay: Binding assay σ (non-selective), [3H]DTG, rat cerebral cortex; details: percent inhibition of control specific binding; compounds tested at 1×10^−6 M
Procedure, shortened: as §1

[5] = target: dopaminergic D2 receptor (Homo sapiens, UniProt P14416); assay: Binding assay D2S (h), [3H]methyl-spiperone, HEK-293 cells; design: expressed in transfected cells; host or cells: HEK-293 cells; details: read-out: D2 [%]
Procedure, shortened: as §1

[6] = target: T2, serotonine transporter (SERT) receptor (Homo sapiens, UniProt P31645); assay: Binding assay SERT (h), [3H]imipramine, CHO cells; details: read-out: SERT [%]
T2 construct: expressed in transfected cells; host or cells: CHO cells
Procedure, shortened: as §1

[7] = target: serotoninergic 5-HT7 receptor (Homo sapiens, UniProt P34969); assay: Cellular functional assay, serotoninergic 5-HT7 receptor (agonism/antagonism); assay type: cell-based; details: for activation at 1 µM: agonist effect, percent of control specific agonist response, compounds tested at 1×10^−6M, read-out: 5-HT7-ag [%]; for inhibition at 1 µM: read-out: 5-HT7-antag. [%]
Procedure: as §2, §3

[8] = target: serotoninergic 5-HT6 receptor (Homo sapiens, UniProt P50406); assay: Binding assay 5-HT6 (h), [3H]LSD, CHO cells; design: expressed in transfected cells; host or cells: CHO cells; details: read-out: 5-HT6
Procedure, shortened: as §1

[9] = target: dopaminergic D3 receptor (Homo sapiens, UniProt P35462); assay: Binding assay D3 (h), [3H]methyl-spiperone, CHO cells; design: expressed in transfected cells; host or cells: CHO cells; details: read-out: D3 [%]
Procedure, shortened: as §1

[10] = target: T3, serotoninergic 5-HT1A receptor (Homo sapiens, UniProt P08908); assay: Cellular functional assay, serotoninergic 5-HT1A receptor (agonism/antagonism); assay type: cell-based; details: for inhibition at 1 µM: CHO, read-out: 5-HT1A-antag. [%]; for activation at 1 µM: agonist effect, percent of control specific agonist response (100 nM 8-OH-DPAT for control), 1×10^−6 M, 5-HT1A (h), CHO cells, read-out: 5-HT1A-ag [%]
T3 sequence (P08908 1-422): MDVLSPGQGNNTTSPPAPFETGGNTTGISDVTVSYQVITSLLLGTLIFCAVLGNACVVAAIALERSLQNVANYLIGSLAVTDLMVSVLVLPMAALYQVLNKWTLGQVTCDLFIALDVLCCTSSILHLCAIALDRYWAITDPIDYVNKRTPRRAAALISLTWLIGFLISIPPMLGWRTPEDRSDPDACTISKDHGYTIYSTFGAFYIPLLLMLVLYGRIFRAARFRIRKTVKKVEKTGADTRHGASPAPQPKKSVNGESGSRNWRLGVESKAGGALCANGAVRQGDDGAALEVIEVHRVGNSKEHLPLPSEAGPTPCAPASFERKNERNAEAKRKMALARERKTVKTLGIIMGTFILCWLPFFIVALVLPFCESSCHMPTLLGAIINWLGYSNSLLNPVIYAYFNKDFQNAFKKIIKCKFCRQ
Procedure: as §2, §3

[11] = target: T3, serotoninergic 5-HT1A receptor; assay: Binding assay 5-HT1A (h), [3H]8-OH-DPAT, HEK-293 cells; design: expressed in transfected cells; host or cells: HEK-293 cells; details: read-out: 5-HT1A
Procedure, shortened: as §1

[12] = target: T1, adrenergic α2C receptor; assay: Binding assay α2C (h), [3H]RX 821002, CHO cells; design: expressed in transfected cells; host or cells: CHO cells; details: read-out: α2C [%]
Procedure, shortened: as §1

[13] = target: hERG potassium channels (Homo sapiens, UniProt Q12809); assay: hERG potassium channel block, electrophysiology (IonWorks Quattro), CHO cells; details: % block of hERG current, cloned hERG channels in CHO cells, IonWorks Quattro
hERG potassium channels, sequence (Q12809 whole entry): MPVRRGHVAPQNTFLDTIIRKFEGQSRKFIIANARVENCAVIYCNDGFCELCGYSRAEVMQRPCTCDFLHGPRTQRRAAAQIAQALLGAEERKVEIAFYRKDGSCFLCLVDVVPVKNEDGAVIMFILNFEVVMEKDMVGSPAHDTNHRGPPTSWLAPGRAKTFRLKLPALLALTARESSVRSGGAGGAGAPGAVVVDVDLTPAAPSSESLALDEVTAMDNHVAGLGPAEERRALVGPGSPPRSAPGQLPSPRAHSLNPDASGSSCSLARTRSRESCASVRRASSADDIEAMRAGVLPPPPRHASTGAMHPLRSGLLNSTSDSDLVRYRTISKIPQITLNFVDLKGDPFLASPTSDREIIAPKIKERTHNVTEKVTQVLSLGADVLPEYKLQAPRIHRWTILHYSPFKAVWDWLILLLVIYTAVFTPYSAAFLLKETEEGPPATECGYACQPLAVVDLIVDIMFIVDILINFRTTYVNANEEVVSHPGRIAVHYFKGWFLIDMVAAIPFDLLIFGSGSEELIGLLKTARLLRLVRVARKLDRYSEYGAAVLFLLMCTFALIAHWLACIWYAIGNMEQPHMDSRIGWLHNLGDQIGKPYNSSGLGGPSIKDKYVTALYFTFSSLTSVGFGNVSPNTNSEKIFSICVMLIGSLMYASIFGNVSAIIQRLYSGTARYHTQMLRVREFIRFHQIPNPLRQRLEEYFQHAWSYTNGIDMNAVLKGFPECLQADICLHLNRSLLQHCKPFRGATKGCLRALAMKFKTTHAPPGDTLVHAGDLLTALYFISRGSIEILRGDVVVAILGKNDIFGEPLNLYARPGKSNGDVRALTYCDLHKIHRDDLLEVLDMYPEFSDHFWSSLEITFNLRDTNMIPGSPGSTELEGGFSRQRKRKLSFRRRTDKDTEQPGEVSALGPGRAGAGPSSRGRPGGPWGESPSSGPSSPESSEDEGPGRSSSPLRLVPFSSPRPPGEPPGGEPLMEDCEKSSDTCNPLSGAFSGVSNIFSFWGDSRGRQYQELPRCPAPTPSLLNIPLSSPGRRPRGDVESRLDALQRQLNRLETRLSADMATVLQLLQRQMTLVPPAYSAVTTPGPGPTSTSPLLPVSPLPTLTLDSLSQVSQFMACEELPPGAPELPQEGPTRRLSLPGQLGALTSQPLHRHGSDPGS
Procedure: Ability to block hERG potassium channels was determined using the electrophysiological method and cloned hERG potassium channels (KCNH2 gene, expressed in CHO cells) as biological material. The effects were evaluated using IonWorks™ Quattro system (MDS-AT).
hERG current was elicited using a pulse pattern with fixed amplitudes (conditioning prepulse: −80 mV for 25 ms; test pulse: +40 mV for 80 ms) from a holding potential of 0 mV. hERG current was measured as a difference between the peak current at 1 ms after the test step to +40 mV and the steady-state current at the end of the step to +40 mV.
Data acquisition and analyses was performed using the IonWorks Quattro™ system operation software (version 2.0.2; Molecular Devices Corporation, Union City, Calif.). Data were corrected for leak current.

serotoninergic 5-HT7 receptor, sequence (P34969 whole entry): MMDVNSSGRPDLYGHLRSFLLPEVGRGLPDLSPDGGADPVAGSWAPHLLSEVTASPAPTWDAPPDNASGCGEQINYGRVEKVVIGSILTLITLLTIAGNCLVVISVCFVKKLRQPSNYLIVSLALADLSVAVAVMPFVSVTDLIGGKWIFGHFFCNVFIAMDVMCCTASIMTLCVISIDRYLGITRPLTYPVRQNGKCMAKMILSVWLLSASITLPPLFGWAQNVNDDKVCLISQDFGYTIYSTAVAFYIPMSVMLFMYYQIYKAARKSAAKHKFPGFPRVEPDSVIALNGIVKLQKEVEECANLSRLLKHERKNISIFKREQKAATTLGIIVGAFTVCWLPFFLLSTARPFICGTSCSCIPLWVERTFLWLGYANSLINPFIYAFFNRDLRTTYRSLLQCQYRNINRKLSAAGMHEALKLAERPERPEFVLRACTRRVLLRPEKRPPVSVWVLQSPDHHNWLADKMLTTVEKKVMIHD
dopaminergic D3 receptor, sequence (P35462 whole entry): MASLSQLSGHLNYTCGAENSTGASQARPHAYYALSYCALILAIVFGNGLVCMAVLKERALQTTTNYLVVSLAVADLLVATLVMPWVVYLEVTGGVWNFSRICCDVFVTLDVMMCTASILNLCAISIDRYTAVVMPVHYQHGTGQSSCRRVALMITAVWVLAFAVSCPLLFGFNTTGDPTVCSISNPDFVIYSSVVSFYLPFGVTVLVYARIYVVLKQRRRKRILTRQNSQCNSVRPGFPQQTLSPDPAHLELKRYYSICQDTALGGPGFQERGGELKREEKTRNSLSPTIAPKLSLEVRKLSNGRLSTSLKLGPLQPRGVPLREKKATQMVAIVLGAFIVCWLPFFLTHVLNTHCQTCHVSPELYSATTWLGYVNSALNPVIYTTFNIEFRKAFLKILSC
T2 sequence (P31645 whole entry): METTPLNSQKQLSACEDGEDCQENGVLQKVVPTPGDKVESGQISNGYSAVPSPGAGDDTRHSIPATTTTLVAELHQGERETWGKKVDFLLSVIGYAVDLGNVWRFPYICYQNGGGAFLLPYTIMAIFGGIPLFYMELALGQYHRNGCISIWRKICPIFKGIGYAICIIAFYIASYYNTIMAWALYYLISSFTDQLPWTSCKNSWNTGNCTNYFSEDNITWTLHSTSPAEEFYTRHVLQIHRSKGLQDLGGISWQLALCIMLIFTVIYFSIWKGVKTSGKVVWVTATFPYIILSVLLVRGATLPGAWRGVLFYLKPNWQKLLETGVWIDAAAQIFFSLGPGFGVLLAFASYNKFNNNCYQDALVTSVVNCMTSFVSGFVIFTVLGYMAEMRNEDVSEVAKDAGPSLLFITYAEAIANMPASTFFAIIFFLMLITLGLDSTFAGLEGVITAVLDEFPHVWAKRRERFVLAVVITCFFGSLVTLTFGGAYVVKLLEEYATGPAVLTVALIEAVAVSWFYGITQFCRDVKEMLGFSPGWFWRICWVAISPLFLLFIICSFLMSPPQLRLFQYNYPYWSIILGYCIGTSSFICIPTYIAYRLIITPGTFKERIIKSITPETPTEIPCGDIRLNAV
dopaminergic D2 receptor, sequence (P14416 1-414 isoform P14416-2): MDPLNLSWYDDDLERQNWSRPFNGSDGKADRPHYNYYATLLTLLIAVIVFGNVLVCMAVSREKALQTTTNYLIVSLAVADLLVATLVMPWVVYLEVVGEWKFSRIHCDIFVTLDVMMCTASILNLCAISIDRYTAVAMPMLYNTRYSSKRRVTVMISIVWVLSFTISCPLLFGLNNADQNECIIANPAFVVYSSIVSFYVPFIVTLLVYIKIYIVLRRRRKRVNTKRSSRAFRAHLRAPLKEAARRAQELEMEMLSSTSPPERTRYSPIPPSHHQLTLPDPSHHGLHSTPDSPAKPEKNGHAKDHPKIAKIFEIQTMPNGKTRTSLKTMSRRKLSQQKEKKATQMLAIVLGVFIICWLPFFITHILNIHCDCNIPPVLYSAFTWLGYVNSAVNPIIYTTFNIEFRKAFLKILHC
serotoninergic 5-HT6 receptor, sequence (P50406 whole entry): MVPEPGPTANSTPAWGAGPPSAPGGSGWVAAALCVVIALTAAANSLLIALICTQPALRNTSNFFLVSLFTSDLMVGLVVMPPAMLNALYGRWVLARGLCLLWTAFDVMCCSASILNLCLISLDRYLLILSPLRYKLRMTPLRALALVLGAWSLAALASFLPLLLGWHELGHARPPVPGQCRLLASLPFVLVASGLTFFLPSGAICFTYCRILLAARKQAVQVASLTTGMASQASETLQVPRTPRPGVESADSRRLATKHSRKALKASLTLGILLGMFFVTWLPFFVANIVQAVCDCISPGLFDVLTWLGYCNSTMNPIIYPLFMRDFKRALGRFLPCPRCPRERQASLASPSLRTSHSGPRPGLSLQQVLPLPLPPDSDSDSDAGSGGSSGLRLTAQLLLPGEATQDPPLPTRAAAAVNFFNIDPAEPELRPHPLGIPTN
serotoninergic 5-HT2A receptor, sequence (P28223 whole entry): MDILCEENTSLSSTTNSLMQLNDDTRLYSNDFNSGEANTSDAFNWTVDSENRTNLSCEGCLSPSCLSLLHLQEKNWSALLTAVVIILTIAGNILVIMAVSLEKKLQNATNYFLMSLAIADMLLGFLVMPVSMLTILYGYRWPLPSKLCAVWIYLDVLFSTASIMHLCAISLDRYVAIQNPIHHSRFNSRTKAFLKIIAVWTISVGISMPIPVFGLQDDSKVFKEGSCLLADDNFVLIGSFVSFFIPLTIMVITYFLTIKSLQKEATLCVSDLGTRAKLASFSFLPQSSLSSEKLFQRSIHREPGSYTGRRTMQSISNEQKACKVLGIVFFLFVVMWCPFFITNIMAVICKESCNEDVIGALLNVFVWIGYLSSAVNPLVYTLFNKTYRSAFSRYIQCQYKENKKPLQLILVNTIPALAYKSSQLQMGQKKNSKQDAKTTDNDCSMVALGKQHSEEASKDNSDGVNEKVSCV

| Compound | α1 [%] [1] [%] | inhibition at 1 µM [2] [%] | activation at 1 µM [3] [%] | inhibition at 1 µM [3] [%] | σ [%] [4] [%] | inhibition at 1 µM [5] [%] | inhibition at 1 µM [6] [%] | activation at 1 µM [7] [%] | inhibition at 1 µM [7] [%] | inhibition at 1 µM [8] [%] | inhibition at 1 µM [9] [%] | inhibition at 1 µM [10] [%] | activation at 1 µM [10] [%] | inhibition at 1 µM [11] [%] | inhibition at 1 µM [12] [%] | hERG [%] [13] [%] |
| --- | --- | --- | --- | --- | --- | --- | --- | --- | --- | --- | --- | --- | --- | --- | --- | --- |
| Cc1cccc(S(=O)(=O)NCCCN2CCC(c3noc4cc(F)ccc34)CC2)c1 [Compound 22, N-[3-[4-(6-Fluoro-1,2-benzoxazol-3-yl)piperidin-1-yl]propyl]-3-methylbenzenesulphonamide] | 100 | 99 | -8 | 12 | 92 | 96 | 44 | -1 | 100 | 99 | 96 | 99 | 0 | 75 | 100 | 52 |
| O=S(=O)(NCCCCN1CCN(c2cccc3[nH]ccc23)CC1)c1ccc2cc(Cl)ccc2c1 [Compound 358, 6-Chloro-N-[4-[4-(1H-indol-4-yl)piperazin-1-yl]butyl]naphthalene-2-sulphonamide] | 88 | 99 | 28 | 48 | 84 | 96 | 40 | 10 | 28 | 70 | 99 | 70 | 22 | 100 | 101 | 0 |
